Numbers after ± are expanded uncertainties.
How the values were obtained:
[1] = refractive index (Na D-line) (dimensionless); conditions: 293.1 K; 101.33 kPa; Liquid; Standard Abbe refractometry
[2] = Liquid

CC(C)COC(=O)C1CCCCC1C(=O)OCC(C)C (stereo unspecified) [diisobutyl hexahydrophthalate]
Conditions	refractive index
[1]	1.453 ± 0.0007

[2]
Conditions	vapor or sublimation pressure [kPa]
434.4 K	0.732 ± 0.32
448.2 K	1.539 ± 0.33
463.3 K	2.912 ± 0.33
478.7 K	4.813 ± 0.34
486.4 K	6.342 ± 0.34
491.5 K	7.672 ± 0.34
500.3 K	10.2 ± 0.35
506.6 K	12.5 ± 0.36
509.6 K	13.99 ± 0.36
515 K	16.31 ± 0.37
519.5 K	18.67 ± 0.38
524.1 K	21.3 ± 0.39
527.8 K	23.69 ± 0.4
534.8 K	28.61 ± 0.41
538.2 K	30.94 ± 0.42
